Source: ChEMBL document CHEMBL6071146, “Synthesis and identification of a selective FGFR2 degrader with potent antiproliferative effects in gastric cancer” (Eur J Med Chem, 2024)
Active and inactive are the calls of the source. The rule behind the calls is not given here.

Key:
[1] = tested on: SNU-16; assay: Antitumor activity against human SNU-16 cells xenografted in BALB/c mouse assessed as decrease in tumor size at 10 to 20 mg/kg, ip qd for 25 days; type: functional, organism-based; conditions: dose 10-20 mg/kg, time 25.0 day
[2] = tested on: SNU-16; assay: Antiproliferative activity against human SNU-16 cells incubated for 72 hrs by MTT assay; conditions: SNU-16, 72 h
[3] = Toxicity in BALB/c mouse xenografted with human SNU-16 cells assessed as damage in lung at 10 to 20 mg/kg, ip qd for 25 days by H and E staining based analysis; type: organism-based; conditions: in vivo, 600 h, dose 10-20 mg/kg, time 25 day
[4] = AUC (0 to t) in Sprague-Dawley rat at 2 mg/kg, iv measured for 24 hrs by LC-MS/MS analysis; type: ADME, organism-based; conditions: in vivo
[5] = tested on: SNU-16; assay: Antitumor activity against human SNU-16 cells xenografted in BALB/c mouse assessed as tumor growth suppression at 10 to 20 mg/kg, ip qd for 25 days; type: functional, organism-based; conditions: dose 10-20 mg/kg, time 25.0 day
[6] = tested on: SNU-16; assay: Induction of apoptosis in human SNU-16 cells assessed as increase in cleaved caspase-3 level at 0.5 to 1 uM incubated for 24 hrs by Western blot analysis; type: functional, cell-based; conditions: dose 0.5-1 µM
[7] = tested on: BaF3; assay: Antiproliferative activity against mouse BaF3 cells stably expressing TEL-FGFR2 incubated for 72 hrs bby CellTiter-Glo assay; conditions: BaF3, 72 h
[8] = tested on: KATO III; assay: Induction of cell cycle arrest at G0/G1 phase in human KATO III cells assessed as reduction in CDK2 level at 500 to 1000 nM incubated for 24 hrs by Western blot analysis; type: functional, cell-based; conditions: dose 500-1000 nM
[9] = tested on: SNU-16; assay: cells; conditions: Homo sapiens, SNU-16, 24 h, read-out: Activity
Description: Induction of apoptosis in human SNU-16 cells assessed as viable cells at 1000 nM incubated for 24 hrs by Annexin V-FITC/PI staining based flow cytometry (Rvb = 77.12 %)

[10] = tested on: SNU-16; assay: Induction of cell cycle arrest at G0/G1 phase in human SNU-16 cells assessed as increase in p21 level at 500 to 1000 nM incubated for 24 hrs by Western blot analysis; type: functional, cell-based; conditions: dose 500-1000 nM
[11] = Cmax in Sprague-Dawley rat at 5 mg/kg, ip measured for 24 hrs by LC-MS/MS analysis; type: ADME, organism-based; conditions: in vivo
[12] = tested on: SNU-16; assay: cells; conditions: Homo sapiens, SNU-16, 24 h, read-out: Activity; remark: listed apart in the source
Description: Induction of apoptosis in human SNU-16 cells assessed as viable cells at 500 nM incubated for 24 hrs by Annexin V-FITC/PI staining based flow cytometry (Rvb = 77.12 %)

[13] = Toxicity in BALB/c mouse xenografted with human SNU-16 cells assessed as damage in liver at 10 to 20 mg/kg, ip qd for 25 days by H and E staining based analysis; type: organism-based; conditions: in vivo, 600 h, dose 10-20 mg/kg, time 25 day
[14] = Clearance in Sprague-Dawley rat at 2 mg/kg, iv measured for 24 hrs by LC-MS/MS analysis; type: ADME, organism-based; conditions: in vivo
[15] = Tmax in Sprague-Dawley rat at 5 mg/kg, ip measured for 24 hrs by LC-MS/MS analysis; type: ADME, organism-based; conditions: in vivo
[16] = tested on: BaF3; assay: Antiproliferative activity against mouse BaF3 cells stably expressing TEL-FGFR1 incubated for 72 hrs bby CellTiter-Glo assay; conditions: BaF3, 72 h
[17] = AUC (infinity) in Sprague-Dawley rat at 5 mg/kg, ip measured for 24 hrs by LC-MS/MS analysis; type: ADME, organism-based; conditions: in vivo
[18] = cells; conditions: Homo sapiens, KATO III, 24 h, read-out: Activity
Description: Induction of apoptosis in human KATO III cells assessed as viable cells at 500 nM incubated for 24 hrs by Annexin V-FITC/PI staining based flow cytometry (Rvb = 87.00 %)

[19] = Half life in Sprague-Dawley rat at 2 mg/kg, iv measured for 24 hrs by LC-MS/MS analysis; type: ADME, organism-based; conditions: in vivo
[20] = MRT (infinity) in Sprague-Dawley rat at 5 mg/kg, ip measured for 24 hrs by LC-MS/MS analysis; type: ADME, organism-based; conditions: in vivo
[21] = Volume of distribution at steady state in Sprague-Dawley rat at 2 mg/kg, iv measured for 24 hrs by LC-MS/MS analysis; type: ADME, organism-based; conditions: in vivo, read-out: Vdss
[22] = tested on: SNU-16; assay: Antitumor activity against human SNU-16 cells xenografted in BALB/c mouse at 20 mg/kg, ip qd for 25 days relative to control; conditions: SNU-16, 600 h, read-out: TGI
[23] = tested on: KATO III; assay: Induction of cell cycle arrest at G0/G1 phase in human KATO III cells assessed as reduction in Cyclin D1 level at 500 to 1000 nM incubated for 24 hrs by Western blot analysis; type: functional, cell-based; conditions: dose 500-1000 nM
[24] = tested on: SNU-16; assay: Antitumor activity against human SNU-16 cells xenografted in BALB/c mouse assessed as decrease in tumor weight at 10 to 20 mg/kg, ip qd for 25 days; type: functional, organism-based; conditions: dose 10-20 mg/kg, time 25.0 day
[25] = Half life in Sprague-Dawley rat at 5 mg/kg, ip measured for 24 hrs by LC-MS/MS analysis; type: ADME, organism-based; conditions: in vivo
[26] = Apparent oral clearance in Sprague-Dawley rat at 5 mg/kg, ip measured for 24 hrs by LC-MS/MS analysis; type: ADME, organism-based; conditions: in vivo
[27] = tested on: KATO III; assay: Induction of cell cycle arrest at G0/G1 phase in human KATO III cells assessed as reduction in CDK4 level at 500 to 1000 nM incubated for 24 hrs by Western blot analysis; type: functional, cell-based; conditions: dose 500-1000 nM
[28] = Toxicity in BALB/c mouse xenografted with human SNU-16 cells assessed as damage in spleen at 10 to 20 mg/kg, ip qd for 25 days by H and E staining based analysis; type: organism-based; conditions: in vivo, 600 h, dose 10-20 mg/kg, time 25 day
[29] = Antiproliferative activity against human KATO III cells incubated for 72 hrs by MTT assay
[30] = tested on: KATO III; assay: Induction of cell cycle arrest at G0/G1 phase in human KATO III cells assessed as increase in p21 level at 500 to 1000 nM incubated for 24 hrs by Western blot analysis; type: functional, cell-based; conditions: dose 500-1000 nM
[31] = species: Homo sapiens; assay: Induction of VEGFR2 (unknown origin) degradation
[32] = Toxicity in BALB/c mouse xenografted with human SNU-16 cells assessed as damage in kidney at 10 to 20 mg/kg, ip qd for 25 days by H and E staining based analysis; type: organism-based; conditions: in vivo, 600 h, dose 10-20 mg/kg, time 25 day
[33] = MRT (infinity) in Sprague-Dawley rat at 2 mg/kg, iv measured for 24 hrs by LC-MS/MS analysis; type: ADME, organism-based; conditions: in vivo
[34] = AUC (infinity) in Sprague-Dawley rat at 2 mg/kg, iv measured for 24 hrs by LC-MS/MS analysis; type: ADME, organism-based; conditions: in vivo
[35] = Apparent volume of distribution during terminal phase in Sprague-Dawley rat at 5 mg/kg, ip measured for 24 hrs by LC-MS/MS analysis; type: ADME, organism-based; conditions: in vivo, read-out: Vz/F
[36] = tested on: BaF3; assay: Antiproliferative activity against mouse BaF3 cells stably expressing TEL-FGFR4 incubated for 72 hrs bby CellTiter-Glo assay; conditions: BaF3, 72 h
[37] = Oral bioavailability in Sprague-Dawley rat at 5 mg/kg measured for 24 hrs by LC-MS/MS analysis; type: ADME, organism-based; conditions: in vivo
[38] = tested on: KATO III; assay: Induction of cell cycle arrest at G0/G1 phase in human KATO III cells assessed as reduction in Cyclin E level at 500 to 1000 nM incubated for 24 hrs by Western blot analysis; type: functional, cell-based; conditions: dose 500-1000 nM
[39] = tested on: KATO III; assay: Induction of apoptosis in human KATO III cells assessed as increase in cleaved caspase-3 level at 0.5 to 1 uM incubated for 24 hrs by Western blot analysis; type: functional, cell-based; conditions: dose 0.5-1 µM
[40] = Toxicity in BALB/c mouse xenografted with human SNU-16 cells assessed as obvious side effect at 10 to 20 mg/kg, ip qd for 25 days; type: organism-based; conditions: in vivo, 600 h, dose 10-20 mg/kg, time 25 day
[41] = Toxicity in BALB/c mouse xenografted with human SNU-16 cells assessed as weight loss at 10 to 20 mg/kg, ip qd for 25 days; type: organism-based; conditions: in vivo, 600 h, dose 10-20 mg/kg, time 25 day
[42] = Toxicity in BALB/c mouse xenografted with human SNU-16 cells assessed as damage in heart at 10 to 20 mg/kg, ip qd for 25 days by H and E staining based analysis; type: organism-based; conditions: in vivo, 600 h, dose 10-20 mg/kg, time 25 day
[43] = cells; conditions: Homo sapiens, KATO III, 24 h, read-out: Activity; remark: listed apart in the source
Description: Induction of apoptosis in human KATO III cells assessed as viable cells at 1000 nM incubated for 24 hrs by Annexin V-FITC/PI staining based flow cytometry (Rvb = 87.00 %)

[44] = Toxicity in BALB/c mouse xenografted with human SNU-16 cells assessed as drug tolerance at 10 to 20 mg/kg, ip qd for 25 days; type: organism-based; conditions: in vivo, 600 h, dose 10-20 mg/kg, time 25 day
[45] = AUC (0 to t) in Sprague-Dawley rat at 5 mg/kg, ip measured for 24 hrs by LC-MS/MS analysis; type: ADME, organism-based; conditions: in vivo
[46] = tested on: BaF3; assay: Antiproliferative activity against mouse BaF3 cells stably expressing TEL-FGFR3 incubated for 72 hrs bby CellTiter-Glo assay; conditions: BaF3, 72 h

With `COc1cc(OC)cc(N(CCNC(C)C)c2ccc3ncc(-c4cnn(CCCCCCC(=O)NCCNc5cccc6c5C(=O)N(C5CCC(=O)NC5=O)C6=O)c4)nc3c2)c1` (stereo unspecified) the Activity [1] was “Active”, the IC50 [2] was less than 0.17 nM and the Activity [3] was “Non-Toxic”. The AUC(0-t) at 24 h [4] was 544 ng·h/mL, the Activity [5] was “Active” and the Activity [6] was “Active”. For the same compound, the IC50 [7] was 22.7 nM, the Activity [8] was “Active” and the viability at 1 µM [9] was 42.7%. For the same compound, the Activity [10] was “Active”, the Cmax [11] was 302 ng/mL and the viability at 0.5 µM [12] was 45.6%. The Activity [13] was “Non-Toxic”, the clearance [14] was 59.3 mL/min/kg and the Tmax [15] was 0.25 h. The IC50 [16] was 138 nM, the AUC(0-inf) [17] was 1070 ng·h/mL and the viability at 0.5 µM [18] was 66.8%. The half-life [19] was 4.65 h, the MRT inf [20] was 6.53 h and the Vd [21] was 7.58 L/kg. For the same compound, the inhibition in vivo at 20 mg/kg [22] was 117%, the Activity [23] was “Active” and the Activity [24] was “Active”. The half-life [25] was 7.59 h, the CL/F [26] was 78.2 mL/min/kg and the Activity [27] was “Active”. The Activity [28] was “Non-Toxic”, the IC50 [29] was less than 0.17 nM and the Activity [30] was “Active”. The Activity [31] was “inactive”, the Activity [32] was “Non-Toxic” and the MRT inf [33] was 2.27 h. It also gave an AUC(0-inf) [34] of 570 ng·h/mL, a Vd/F [35] of 51.4 L/kg and an IC50 [36] of 332 nM. The bioavailability [37] was 74.8%, the Activity [38] was “Active” and the Activity [39] was “Active”. The Activity [40] was “Non-Toxic”, the Activity [41] was “Non-Toxic” and the Activity [42] was “Non-Toxic”. For the same compound, the viability at 1 µM [43] was 65%, the Activity [44] was “Non-Toxic” and the AUC(0-t) at 24 h [45] was 991 ng·h/mL. The IC50 [46] was 97.1 nM.
